Results on 4 molecules are retold here after US11517577B2, “Fluorinated bile acid derivatives” (NZP UK LIMITED, priority 2018, dated 2022).

SMILES strings stand for the structures. Where two headings read alike, the source gives them in different places. Bounds are passed on as bounds.

Series [1] has as its target T1, Human Farnesoid X Receptor (NR1H4, FXR) (Homo sapiens, UniProt Q96RI1).
T1 sequence (Q96RI1 1-486): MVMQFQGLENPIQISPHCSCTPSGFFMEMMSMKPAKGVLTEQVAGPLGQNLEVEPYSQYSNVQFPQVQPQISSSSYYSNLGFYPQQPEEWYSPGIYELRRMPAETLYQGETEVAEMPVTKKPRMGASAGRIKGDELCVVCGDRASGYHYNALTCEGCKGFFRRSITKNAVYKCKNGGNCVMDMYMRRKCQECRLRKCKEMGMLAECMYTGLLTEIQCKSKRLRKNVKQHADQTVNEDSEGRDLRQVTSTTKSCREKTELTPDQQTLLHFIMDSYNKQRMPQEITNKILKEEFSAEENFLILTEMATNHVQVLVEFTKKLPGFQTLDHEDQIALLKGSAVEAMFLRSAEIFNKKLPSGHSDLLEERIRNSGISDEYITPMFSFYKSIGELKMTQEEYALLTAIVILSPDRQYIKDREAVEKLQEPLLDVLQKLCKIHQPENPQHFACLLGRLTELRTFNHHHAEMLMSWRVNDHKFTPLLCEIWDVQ
As to the kind of experiment: FXR reporter assay, EC50 and efficacy (Indigo Biosciences luciferase reporter cells). The series is classed as cell-based. The note with it: for Efficacy: maximum point on the dose response curve, GW4064 designated as 100%. How it is done: The compounds of the invention were assayed for agonist activity at the FXR receptor.
Dose-response assays were performed as described in the technical manual of the Human Farnesoid X Receptor (NR1H4, FXR) Reporter Assay System (Indigo Biosciences Human Farnesoid X Receptor (NR1H4, FXR) Reporter Assay System, Technical Manual (version 7.1b), at the World Wide Web (www)indiqobiosciences.com).
FXR reporter cells consisting of an FXR-responsive promoter gene functionally linked to the luciferase gene were defrosted and seeded into a 96-well plate and these cells were immediately dosed with the test compounds at different concentrations (10-0.05 μM) according to the manufacturer's protocol. […] Following this, the induction of luciferase activity, which is the measure of the agonist activity, was quantified by using luminometer (TECAN) according to the manufacturer's protocol.
For orientation: Reporter assays use an easily measured gene product as a stand-in for the process of interest.

The conditions of series [2]: Xiao et al., 2017; cited from earlier work.
For series [3], the system named is CYP7A1 expression in HepG2 cells. Put plainly: qPCR of CYP7A1 expression in HepG2 cells. The note with it: HepG2, 24 hours. It is filed as cell-based, human. How it is done:
(§1) Compound 2 and OCA were also tested in the human hepatocellular carcinoma cell line, HepG2.
(§2) Testing in Huh7 cells and HepG2 cells was also carried out for Compound 14 in the same way as for Compound 2.
(§3) Total RNA was extracted using the RNAQUEOUS™ Total RNA Isolation kit (Ambion) and all reagents were provided in the kit or prepared according to manufacturer's instructions. For cultured cells, the medium was removed and cells were washed with 1×PBS to remove cellular debris and residual medium. Total RNA was extracted from fresh cells. For 1×10^6 cells, 350 μl lysis buffer was added directly to the well and cells were harvested by scraping with a pipette tip. […]
(§4) The ready-to-use reaction mastermix, ITAQ™ Universal SYBR® Green Supermix (Biorad) was used for all qPCR reactions. […] Melting curve analysis was performed straight after each run by increasing the temperature from 60° C. to 95° C. in 0.3° C. increments, and measuring fluorescence dissociation.
(§5) To quantify gene expression, the baseline-corrected Ct value was determined automatically by the qPCR system software (Applied Biosystems). Relative changes in gene expression were determined by the Livak, or ΔΔCt, method whereby the Ct values of target genes were normalised to Ct value of the reference gene, for both the samples treated with vehicle/untreated samples (control) and the samples treated with compound (test samples). […]
For orientation: Real-time PCR tracks product formation cycle by cycle.

The test system of series [4] is TGFβ1 expression in HepG2 cells. As to the kind of experiment: qPCR of TGFβ1 expression in HepG2 cells. The series is classed as cell-based, human. Conditions: HepG2, 24 hours. How it is done: as §1, §2, §3, §4, §5
In series [5] the test system is OSTα expression in Huh7 cells. As to the kind of experiment: qPCR of OSTα expression in Huh7 cells. It is filed as cell-based, human. The note with it: Huh7, 24 hours. How it is done: (§6) To assess specific changes in gene expression in response to the test compounds, precise quantification and analysis by quantitative real-time PCR (qPCR) was carried out. Mammalian tissue culture experiments involved seeding Hepatocellular carcinoma, (Huh7) cells, in 6 well plates at a concentration of 1×10^6 cells/well and incubating for 24 hours at 37° C. to allow attachment.
as §2
Total RNA was extracted using the RNAQUEOUS™ Total RNA Isolation kit (Ambion) and all reagents were provided in the kit or prepared according to manufacturer's instructions. […]
as §4, §5

For the next series, the target named is T2, TGR5 (GPBAR1) receptor (Homo sapiens, UniProt Q8TDU6).
T2 sequence (Q8TDU6 1-330): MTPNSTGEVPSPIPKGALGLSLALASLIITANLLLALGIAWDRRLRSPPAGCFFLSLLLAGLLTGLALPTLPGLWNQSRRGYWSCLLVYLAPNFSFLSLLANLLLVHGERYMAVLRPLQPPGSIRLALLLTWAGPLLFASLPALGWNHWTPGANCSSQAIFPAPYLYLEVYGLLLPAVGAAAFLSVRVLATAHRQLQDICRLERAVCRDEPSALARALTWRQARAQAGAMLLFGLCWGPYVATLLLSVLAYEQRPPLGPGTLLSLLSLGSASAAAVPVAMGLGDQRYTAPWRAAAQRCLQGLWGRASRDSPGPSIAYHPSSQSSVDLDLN
Put plainly: HITHUNTER cAMP assay, agonist mode, TGR5 receptor. Conditions: for Emax: read-out: Max Response; for agonist activity at the TGR5 receptor: statement in words on Table 2. (In general: Changes in cAMP serve as a functional read-out for many G protein-coupled receptors.)

The test system of series [6] is SHP expression in Huh7 cells. Put plainly: qPCR of SHP (NR0B2) expression in Huh7 cells. It is filed as cell-based, human. Conditions: Huh7, 24 hours. How it is done:
as §6, §2
as §3, with “tip. Lysed cells were combined with an equal volume of 64% ethanol and mixed thoroughly by pipetting. The ethanol-lysate mix was transferred to a column and spun at 12,000×G for 1 minute and flow through discarded.” for “tip.”
as §4
To quantify gene expression, the baseline-corrected Ct value was determined automatically by the qPCR system software (Applied Biosystems). Relative changes in gene expression were determined by the Livak, or ΔΔCt, method whereby the Ct values of target genes were normalised to Ct value of the reference gene, for both the samples treated with vehicle/untreated samples (control) and the samples treated with compound (test samples). […] And finally, the expression ratio was calculated using the equation 2^−ΔΔC^t. […]

Method for TGR5 (GPBAR1) receptor: 1. cAMP Hunter cell lines were expanded from freezer stocks according to standard procedures.
Cells were seeded in a total volume of 20 μL into white walled, 384-well microplates and incubated at 37° C. for the appropriate time prior to testing.
For agonist determination, cells were incubated with sample to induce response.
Media was aspirated from cells and replaced with 15 μL 2:1 HBSS/10 mM Hepes:cAMP XS+ Ab reagent.
Intermediate dilution of sample stocks was performed to generate 4× sample in assay buffer.
5 μL of 4× sample was added to cells and incubated at 37° C. or room temperature for 30 or 60 minutes. Vehicle concentration was 1%.
After appropriate compound incubation, assay signal was generated through incubation with 20 μL cAMP XS+ ED/CL lysis cocktail for one hour followed by incubation with 20 μL cAMP XS+ EA reagent for three hours at room temperature.
Microplates were read following signal generation with a PerkinElmer ENVISION™ instrument for chemiluminescent signal detection.
Compound activity was analyzed using CBIS data analysis suite (ChemInnovation, CA).
For Gs agonist mode assays, percentage activity is calculated using the following formula, where RLU is an abbreviation for relative light units:

Broadly, the EC50 is the concentration that produces a half-maximal response. Low values mean a more potent agent, high ones a less potent agent. Turning to `CC[C@H]1[C@@H](O)[C@@H]2[C@H](CC[C@]3(C)[C@@H]([C@H](C)CCC(=O)NS(=O)(=O)c4ccc(C(F)(F)F)cc4)CC[C@@H]23)[C@@]2(C)CC[C@@H](O)[C@H](F)[C@@H]12` [Compound 18, N-(3α,7α-Dihydroxyl-4β-fluoro-6α-ethyl-5β-cholan-24-oyl)-4-trifluoromethylphenyl sulfonamide], in series [1] (FXR reporter cells, 24 h incubation, normalized against EC50 of GW4064, assigned as […] nM), the EC50 was 15 nM. This molecule came in with an Efficacy in series [1] of 148%. Moreover, the “liver:plasma concentration ratio” value in series [2] is given as “highest”.
In series [1], `CC[C@@H]1[C@@H]2[C@@H](F)[C@H](O)CC[C@]2(C)C2CC[C@@]3(C)C(CCC3[C@H](C)CCNC(=O)NS(=O)(=O)c3ccccc3)C2[C@@H]1O` (stereo partly drawn) [Compound 2, N,N′-(3α,7α-Dihydroxyl-4β-fluoro-6α-ethyl-24-nor-5β-cholan-23-yl)-benzene sulfonyl urea] showed an EC50 of 24 nM and an Efficacy of 195%. Moreover, the CYP7A1 expression result in series [3] (with increasing concentrations of compound) is “downregulated”. Besides, in series [4] (compound at its EC50 concentration), the TGFβ1 expression levels entry is recorded as “significant downregulation”. Besides, the “Ostα mRNA increase in expression” value in series [5] (compound at EC50 concentration) is reported as 11 fold. In series [5] (compound at EC90 concentration), the “Ostα mRNA increase in expression” value was 18 fold. At TGR5 (GPBAR1) receptor, the EC50 was > 100000 nM, the Emax worked out at 0% and the “agonist activity at the TGR5 receptor” value is on record as “neither Compound 2 nor Compound 14 has agonist activity at the TGR5 receptor”. Moreover, the “SHP expression levels increased” value in series [6] (compound at EC50 concentration) is reported as 1.5 times. In addition, in series [6] (higher value, printed again as 'EC50 concentration'), the “SHP expression levels increased” value stood at 2.5 times.
Turning to `CC[C@H]1[C@@H](O)[C@@H]2[C@H](CC[C@]3(C)[C@@H]([C@H](C)CCC(=O)NS(=O)(=O)c4ccc(OC(F)(F)F)cc4)CC[C@@H]23)[C@@]2(C)CC[C@@H](O)[C@H](F)[C@@H]12` [Compound 14, N-(3α,7α-Dihydroxyl-4β-fluoro-6α-ethyl-5β-cholan-24-oyl)-p-trifluoromethoxy benzene sulfonamide], the CYP7A1 expression result in series [3] (compound at the EC50 concentration, versus vehicle control cells) is “significantly decreased”. In addition, the TGFβ1 expression result in series [4] (with increasing compound concentrations) is reported as “decline”. Further, on TGR5 (GPBAR1) receptor, the EC50 is > 100000 nM, the Emax was 0% and the “agonist activity at the TGR5 receptor” value is on record as “neither Compound 2 nor Compound 14 has agonist activity at the TGR5 receptor”. Further, the SHP expression levels entry in series [6] (compound at its EC90 concentration) is “more than doubled”.
`CC[C@@H]1[C@@H]2[C@@H](F)[C@H](O)CC[C@]2(C)C2CC[C@@]3(C)C(CCC3[C@H](C)CCNC(=O)NS(=O)(=O)c3cccc(F)c3)C2[C@@H]1O` (stereo partly drawn) [Compound 7, N,N′-(3α,7α-Dihydroxyl-4β-fluoro-6α-ethyl-24-nor-5β-cholan-23-yl)-m-fluorobenzene sulfonyl urea]: in series [1], the concentration for a half-maximal effect (EC50) turned out to be 38 nM and the Efficacy is recorded as 131%.
